# Test results published in US8946270B2, “Amido-pyridyl ether compounds and compositions and their use against parasites” (Merial Limited, priority 2011, dated 2015).
# Like-named read-outs stand apart in the source and are kept apart here.
# What was measured:
# [1] = test system: Rhipicephalus sanguineus (Brown Dog Tick); assay: whole plant or invertebrate; settings: for Contact SP Rhicicep PCT Mortality (%): 200 ppm; for mortality at 200 ppm: Rhipicephalus sanguineus, read-out: Contact SP Rhicicep PCT Mortality (%)
# From the text: A solution of the test compound was used to coat the inner wall of glass vials and to treat two filter papers. Once dried, one filter paper was placed in the cap of the vial and the other in the bottom of the vial. Each treated vial was infested with 10 adult Rhipicephalus sanguineus (Brown Dog Tick). […]
# Haematobia irritans = assay: whole plant or invertebrate; settings: 5 μg/cm^2
# Description: A solution of the test compound was used to treat a filter paper contained within a Petri dish and the filter paper was allowed to evaporate to dryness. A small piece of absorbent cotton moistened with 10% sucrose and ten adult flies (Haematobia irritans or Stomoxys calcitrans) were added to each dish. Dishes were capped and held at room temperature. Assessments were performed at 4 and 24 hours after infestation in comparison with untreated controls.
SMILES,Contact SP Rhicicep PCT Mortality (%) ([1]; timepoint 4 hrs),Contact SP Rhicicep PCT Mortality (%) ([1]; timepoint 24 hrs),mortality at 200 ppm ([1]; timepoint 4 hrs) [%],mortality at 200 ppm ([1]; timepoint 24 hrs) [%],other results
COC(CNC(=O)c1ccc(COc2cccc(-c3cccc(F)c3)c2)cn1)OC [Compound 167],100,100,,,
CSCCNC(=O)c1ccc(COc2cccc(-c3cccc(F)c3)c2)cn1 [Compound 174],90,100,,,
CCC(C)CNC(=O)c1ccc(COc2cccc(-c3cccc(F)c3)c2)cn1 (stereo not shown) [Compound 181],70,90,,,
CCOc1cccc(OCc2ccc(C(=O)NCC(C)C)nc2)c1 [Compound 199],100,100,,,
O=C(NCC1CC1)c1ccc(CCOc2cccc(C(F)(F)F)c2)cn1 [Compound 208],,,,,Contact SP Horn Fly PCT Mortality (%) (Haematobia irritans; timepoint 4 hrs): 100%; Contact SP Horn Fly PCT Mortality (%) (Haematobia irritans; timepoint 24 hrs): 100%
CC(C)CNC(=O)c1ccc(CCOc2cccc(C(F)(F)F)c2)cn1 [Compound 209],,,90,100,
CC(C)(C)CNC(=O)c1ccc(COCc2ccc(Cl)cc2)cn1 [Compound 216],0,60,,,
O=C(NCC1CCOCC1)c1ccc(CCOc2cccc(C(F)(F)F)c2)cn1 [Compound 220],,,100,100,
CCC(C)CNC(=O)c1ccc(CCOc2cccc(C(F)(F)F)c2)cn1 (stereo not shown) [Compound 221],,,90,100,
CC(C)CNC(=O)c1ccc(CCOc2ccc(F)c(OC(F)(F)F)c2)cn1 [Compound 222],90,100,,,
CC(C)CNC(=O)c1ccc(CCOc2cc(Cl)cc(Cl)c2)cn1 [Compound 225],,,90,100,
CC(C)CNC(=O)c1ccc(COCc2ccc(Cl)c(OC(F)(F)F)c2)cn1 [Compound 227],100,100,,,
CC(C)CNC(=O)c1ccc(COCc2ccc(F)c(OC(F)(F)F)c2)cn1 [Compound 228],,,90,90,
CC(C)CNC(=O)c1ccc(COCc2cc(F)cc(C(F)(F)F)c2)cn1 [Compound 229],,,80,80,
CC(C)CNC(=O)c1ccc(COCc2ccc(C(F)(F)F)cc2F)cn1 [Compound 232],,,100,100,
CC(C)CNC(=O)c1ccc(COCc2ccc(Cl)cc2)cn1 [Compound 234],,,90,90,
CC(C)CNC(=O)c1ccc(CCOc2ccc(Br)c(OC(F)(F)F)c2)cn1 [Compound 237],,,90,100,
CC(C)CCNC(=O)c1ccc(CCOc2cccc(OC(F)(F)F)c2)cn1 [Compound 240],,,90,90,
CCC(C)NC(=O)c1ccc(CCOc2cccc(OC(F)(F)F)c2)cn1 (stereo not shown) [Compound 241],,,50,90,
CCC(C)CNC(=O)c1ccc(CCOc2cccc(OC(F)(F)F)c2)cn1 (stereo not shown) [Compound 242],,,70,90,
O=C(NCC1CCOCC1)c1ccc(COc2ccc(C(F)(F)F)cc2Br)cn1 [Compound 256],90,100,,,
O=C(NCC1CCOCC1)c1ccc(COc2ccc(C(F)(F)F)cc2F)cn1 [Compound 257],80,90,,,
O=C(NCC1CCOCC1)c1ccc(COCc2ccc(Cl)cc2)cn1 [Compound 259],,,80,90,
O=C(NCC1CCOCC1)c1ccc(COCc2ccccc2Cl)cn1 [Compound 260],90,100,,,
O=C(NCC1CCOCC1)c1ccc(COCc2ccccc2C(F)(F)F)cn1 [Compound 266],,,70,90,
CC(C)CNC(=O)c1ccc(CCOc2cc(F)cc(C(F)(F)F)c2)cn1 [Compound 278],70,100,,,
CC(C)CNC(=O)c1ccc(COCc2ccc(C(F)(F)F)c(F)c2)cn1 [Compound 283],100,100,,,
CC(C)CNC(=O)c1ccc(COCc2ccc(C(F)(F)F)c(Cl)c2)cn1 [Compound 284],90,100,,,
CC(C)CNC(=O)c1ccc(COCc2cccc(F)c2F)cn1 [Compound 290],80,80,,,
